Common to all, as to experiment: NCI tumour cell line growth inhibition, 48 h
Experiment [1] relates to NCI-H460 lung.
Experiment [2] relates to HL-60(TB) leukemia.
Experiment [3] relates to BT-549 breast.
The subject of experiment [4] is A549 NSCLC.
The test system of experiment [5] is OVCAR-3 ovarian.
For experiment [6], the system named is SK-MEL-2 melanoma.
The test system of experiment [7] is MDA-MB-435.
The test system of experiment [8] is SN12C renal.
Experiment [9] has as its system TK-10 renal.
Experiment [10] concerns SF-539 CNS.

Structures are written as SMILES. “And” between values parts separate entries of the source, which are not always exact repeats. Equal entries are not always repeated.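 Briefly, cells in 96-well plates were exposed to five compound concentrations for 48 h, and endpoints were estimated by linear interpolation. Abbreviation: GI50, concentration required for 50% inhibition of growth. TGI: concentration producing complete growth inhibition.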 Bounds are passed on as bounds.

Consider `CN(C)c1ccc(-c2cc(-c3ccc(Nc4nc(Nc5ccc(Cl)cc5)nc(Nc5ccc(Cl)cc5)n4)cc3)nc(N)c2C#N)cc1`, for which the GI50 in experiment [1] was 15.4 µM; in [2], 10.6 µM; in [3], 71.2 µM; in experiment [4], 13.9 µM; in experiment [5], 13.6 µM; in experiment [6] it was 10.8 µM. Moreover, the GI50 in [7] is 27.9 µM; in experiment [8] it was 13.8 µM; in [9], 53.8 µM; in experiment [10] it was 19.8 µM. In addition, the TGI in [1] was greater than 100 µM; in experiment [2], greater than 100 µM; in experiment [3], greater than 100 µM; in experiment [4], greater than 100 µM; in experiment [5], 92 µM; in experiment [6] it was 86.7 µM. For the same molecule, the TGI in [7], in experiment [8], in experiment [9] and in experiment [10] was greater than 100 µM throughout.

Turning to `Cn1c(=O)c2nc3sc4c(n3c2n(C)c1=O)C(=O)c1ccccc1C4=O`, the TGI was greater than 95.4 µM in experiment [1]; 45.3 µM in experiment [2]; greater than 61.5 µM in experiment [3]; greater than 100 µM in experiment [4]; greater than 50.6 µM in experiment [5]; greater than 75.7 µM in experiment [6]. In addition, the TGI in [7] was greater than 76 µM; in [8], greater than 87.5 µM; in experiment [9] it was greater than 100 µM; in [10], greater than 74.2 µM.

Regarding `COc1ccc(/C=C2\CCC/C(=C\c3ccc(OC)c(OC)c3)C2=O)cc1OC`, the GI50 is 1.61 µM in experiment [1]; 2.25 µM in experiment [2]; 1.7 µM in experiment [3]; 1.79 µM in [4]; 2.17 µM in experiment [5]; 5.02 µM in experiment [6]. The GI50 is 1.1 µM in experiment [7], 8.79 µM in experiment [8], 1.4 µM in experiment [9] and 8.55 µM in experiment [10]. Moreover, the TGI in [1] is greater than 32.5 µM; in experiment [2] it was greater than 32.5 µM; in experiment [3], greater than 32.5 µM; in [4], greater than 32.5 µM; in [5], greater than 32.5 µM; in experiment [6], 15.2 µM. Also, the TGI is greater than 32.5 µM in [7], greater than 32.5 µM in experiment [8], 7.33 µM in experiment [9] and greater than 32.5 µM in [10].

Take `COC12C(COC(=O)NCCO)C3=C(C(=O)C(C)=C(N)C3=O)N1CC1NC12` (stereo not given): the TGI is 30.7 µM and 49.4 µM in experiment [1]; greater than 264 µM in experiment [2]; 171 µM in experiment [3]; greater than 264 µM in [4]; 141 µM in experiment [5]; 79.9 µM and 75.5 µM in experiment [6]. Further, the TGI in experiment [7] is greater than 264 µM; in experiment [8] it was greater than 264 µM; in experiment [9] it was greater than 264 µM; in experiment [10] it was 98.7 µM. The GI50 in experiment [4] was 29.7 µM; in experiment [5], 56.2 µM; in experiment [8] it was 34.4 µM; in experiment [9] it was 66.8 µM; in experiment [10], 13.9 µM.

For `C#Cc1ccc(-n2c(/C=C/c3ccc(O)cc3)nc3ncccc3c2=O)cc1`, the GI50 was 3.33 µM in experiment [1]; 3.2 µM in experiment [2]; 7.51 µM in experiment [3]; 4.74 µM in experiment [4]; 2.41 µM in experiment [5]; 3.95 µM in experiment [6]. For the same molecule, the GI50 in experiment [7] is 1.6 µM; in experiment [8] it was 5.16 µM; in experiment [9], 8.78 µM; in [10], 2.12 µM. Also, the TGI was 14.1 µM in experiment [1]; 30 µM in experiment [2]; 87.4 µM in experiment [3]; greater than 100 µM in [4]; 5.69 µM in experiment [5]; 40.7 µM in experiment [6]. Besides, the TGI in experiment [7] is 4.04 µM; in experiment [8], greater than 100 µM; in experiment [9] it was 68.7 µM; in [10], 6.1 µM.

For `CCC(c1ccccc1)c1noc(CCN(CC)CC)n1` (stereo not given), the GI50 in [1] is greater than 52.3 µM; in experiment [2], 18.1 µM; in [3] it was 39.6 µM; in experiment [4], 42.1 µM; in [5], 25.3 µM; in experiment [6], 24.7 µM. Besides, the GI50 in experiment [7] is 23.8 µM; in experiment [8], 27.1 µM; in [9] it was 42.8 µM; in experiment [10], 23.2 µM. Besides, the TGI in [1] was greater than 87.8 µM; in experiment [2], 54.5 µM; in [3], greater than 100 µM; in experiment [4], greater than 100 µM; in experiment [5] it was greater than 56.2 µM; in [6], 67.7 µM. In addition, the TGI was greater than 78.8 µM in experiment [7], greater than 94.8 µM in experiment [8], greater than 100 µM in [9] and 71.1 µM in experiment [10].

For `C=CCN(CC=C)C(=O)c1cc(C)nc2c1c(=O)n(-c1ccccc1)c(=O)n2CCCN1CCN(c2ccccc2OC)CC1`, the GI50 in [1], in [2], in experiment [3], in experiment [4], in [5] and in [6] was greater than 50 µM throughout. Besides, the GI50 in experiment [7], in [8], in [9] and in experiment [10] was greater than 50 µM in each case. The TGI in [1], in experiment [2], in [3], in experiment [4], in [5] and in [6] was greater than 50 µM throughout. For the same molecule, the TGI in [7], in experiment [8], in [9] and in experiment [10] was greater than 50 µM each time.

Regarding `O=C(c1cccs1)c1c(C(F)(F)F)n([O-])c2cc(Cl)c(Cl)cc2[n+]1=O`, the GI50 in [1] was 1.39 µM; in [2], 0.362 µM; in experiment [3] it was 0.975 µM; in experiment [4], 2.72 µM; in experiment [5], 0.668 µM; in experiment [6] it was 2.7 µM. Moreover, the GI50 in experiment [7] is 1.5 µM; in [8], 1.31 µM; in [9], 1.55 µM; in [10] it was 0.719 µM. In addition, the TGI was 4.07 µM in experiment [1]; 3.53 µM in experiment [2]; 2.52 µM in experiment [3]; 5.85 µM in experiment [4]; 1.82 µM in experiment [5]; greater than 100 µM in experiment [6]. In addition, the TGI in [7] stood at 3.12 µM; in [8], 2.83 µM; in experiment [9], 2.95 µM; in [10] it was 1.94 µM.

The record behind these values is PubChem BioAssay (NCI).
